Data taken from patent US8183236B2, “Compounds with HIV-1 integrase inhibitory activity and use thereof as anti-HIV/AIDS therapeutics” (University of Southern California, priority 2007, dated 2012).

Tests used:
[1] = biological target: T1, HIV-1 integrase (wild-type IN) (Human immunodeficiency virus type 1 group M subtype B, UniProt P12497); experiment: HIV-1 integrase strand transfer assay (32P-labeled 21-mer, gel); format: biochemical
In short: (§1)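 Wild-type IN at 200 nM preincubated with inhibitor 30 min at 30 °C in MnCl2 (7.5 mM), pH 7.2 MOPS buffer with 10% DMSO, then 20 nM 5′-32P-labeled 21-mer duplex added for 1 h. 19-mer and strand-transfer products resolved on denaturing 20% gels by phosphorimaging; IC50 from log concentration versus % inhibition.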

[2] = biological target: T1, HIV-1 integrase (wild-type IN); experiment: HIV-1 integrase 3′-processing assay (32P-labeled 21-mer, gel); format: biochemical
In short: as §1

[3] = wild-type IN 200 nM, 7.5 mM MnCl2, read-out: Inhibition of IN Catalytic Activities IC50 (μM) Strand Transfer
[4] = wild-type IN 200 nM, 7.5 mM MnCl2, read-out: Inhibition of IN Catalytic Activities IC50 (μM) 3′-processing
[5] = unit inferred, read-out: HIV-1 IN Inhibitory Activities Strand transfer
[6] = unit inferred, read-out: IN inhibition activity Strand transfer
[7] = unit inferred, read-out: HIV-1 IN Inhibitory Activities 3′-processing
[8] = unit inferred, read-out: IN inhibition activity 3′-processing
[9] = Table 53, structurally diverse compounds, read-out: IN inhibition activity Strand transfer
[10] = Table 53, structurally diverse compounds, read-out: IN inhibition activity 3′-processing

| Structure (SMILES) | IC50 [1, 3] [µM] | IC50 [2, 4] [µM] | IC50 [1, 6] [µM] | IC50 [2, 8] [µM] | also measured |
| --- | --- | --- | --- | --- | --- |
| CCCCCn1c(=O)c(C(=O)Nc2ccccc2S(N)(=O)=O)c(O)c2ccccc21 [XR13] | 13 | 11 | – | – | – |
| Oc1cccc2ccc(/C=N/N=C/c3ccc4cccc(O)c4n3)nc12 [RT3] | 69 | 45 | – | – | – |
| O=C(O)CCCCCN1C(=O)C(O)=C(C(=O)c2ccc(Cl)cc2)C1c1ccc2c(c1)OCO2 (centres unmarked) [Compound T38] | – | – | 20 | 25 | IC50 [1, 5]: 20 µM; IC50 [2, 7]: 25 µM |
| Cc1ccc2ccc(C(Nc3ccccn3)c3ccc(F)cc3)c(O)c2n1 (centres unmarked) [RT30] | > 100 | > 100 | – | – | – |
| O=C(O)c1cc(-c2ccc(/C=N/Nc3nc4nonc4nc3Nc3ccc(F)cc3)o2)ccc1Cl [AV15A15] | – | – | 6.5 ± 1 | 12 ± 6 | – |
| COc1ccc(C2C(C(=O)c3ccco3)=C(O)C(=O)N2CCN2CCOCC2)c(OC)c1 (centres unmarked) [MMC8] | – | – | – | – | IC50 [1, 5]: 395 µM; IC50 [2, 7]: > 1000 µM |
| N#C/C(=C\c1ccc(-c2ccc(C(=O)O)c(O)c2)o1)c1nc2ccccc2[nH]1 [AV15A31] | – | – | 24 | 34 | – |
| O=C(N/N=C/c1ccc(-c2ccc(Cl)c(C(=O)O)c2)o1)c1ccncc1 [AV15A40] | – | – | 46 ± 23 | 90 ± 18 | – |
| CCCCCn1c(=O)c(C(=O)Nc2cc([N+](=O)[O-])ccc2O)c(O)c2ccccc21 [XR6] | 9 | 9 | – | – | – |
| O=C(Nc1ccccc1C(=O)O)c1cccc(S(=O)(=O)Nc2ccc(Oc3ccccc3)cc2)c1 [GLD25] | – | – | – | – | IC50 [1, 9]: 18 ± 3 µM; IC50 [2, 10]: 42 ± 10 µM |
| Clc1ccc(-c2ccc(/C=N/Nc3nc(Nc4ccccc4)nc(Nc4ccccc4)n3)o2)cc1 [AV15A39] | – | – | > 100 | > 100 | – |
| CC(C)(C)c1ccc(OCC(=O)N/N=C/c2ccc(-c3cccc(C(=O)O)c3)o2)cc1 [AV15A35] | – | – | 86 | > 100 | – |
| COc1cc(/C=N/NC2=NC(=O)C(CC(=O)Nc3ccc(Cl)c(Cl)c3)S2)ccc1O (centres unmarked) [Example X278] | – | – | – | – | IC50 [1, 5]: 38 µM; IC50 [2, 7]: 89 µM |
| Cc1ccc(C(=O)C2=C(O)C(=O)N(c3ncc(S(=O)(=O)c4ccc([N+](=O)[O-])cc4)s3)C2c2cccc(Cl)c2)cc1 (centres unmarked) [AS139 BAS 02234865] | – | – | 8 ± 2 | 27 ± 10 | – |
| O=C(CSc1nnc(Cc2ccccc2)n1-c1cccc(Cl)c1)NNC(=O)c1ccccc1O [AS230] | – | – | 8 ± 4 | 9 ± 1 | – |
| O=C(C1=C(O)C(=O)N(c2nc3ccccc3s2)C1c1cccnc1)c1ccc(Cl)cc1 (centres unmarked) [Compound M28A21] | – | – | 90 ± 10 | > 100 | – |
| COc1cc(-c2nc3ccccn3c2/N=C/c2ccc(-c3ccc(Cl)c(C(=O)O)c3)o2)ccc1O [AV15A25] | – | – | > 100 | > 100 | – |
| Cc1ccc(/C=C2\SC(=S)N(CCC(=O)Nc3ccc(S(=O)(=O)Nc4nccs4)cc3)C2=O)cc1 [Compound X124] | 44 ± 16 | 83 ± 21 | – | – | – |
| O=C(CSc1nnc(-c2ccc(Cl)cc2)n1-c1ccccc1)N/N=C/c1cccc(Oc2ccccc2)c1 [LX7] | – | – | > 100 | > 100 | – |
| COc1ccc2oc(=O)c(-c3csc(N/N=C/c4ccccc4O)n3)cc2c1 [Compound X143] | – | – | – | – | IC50 [1, 5]: 10 µM; IC50 [2, 7]: 30 µM |
| Cc1cc(C)nc(SCc2nnc(SCC(=O)NNC(=O)c3ccccc3O)n2-c2ccccc2)n1 [AS9A3] | – | – | 27 ± 8 | 51 ± 5 | – |

| Structure (SMILES) | IC50 [1, 3] [µM] | IC50 [2, 4] [µM] | IC50 [1, 6] [µM] | IC50 [2, 8] [µM] | also measured |
| --- | --- | --- | --- | --- | --- |
| CN(C)c1nc(NCc2ccccc2)nc(N/N=C/c2ccc(-c3cccc(C(=O)O)c3)o2)n1 [AV15A26] | – | – | 88 | > 100 | – |
| C=CCn1c(=O)c(C(=O)Nc2ccccc2S(N)(=O)=O)c(O)c2ccccc21 [XR7] | 45 | 83 | – | – | – |
| O=C(O)C1CCCCC1C(=O)Nc1ccc(Oc2cccc3ccccc23)cc1 (centres unmarked) [GLD32] | – | – | – | – | IC50 [1, 9]: 34 ± 7 µM; IC50 [2, 10]: > 100 µM |
| N=C1NC(=O)/C(=C\c2ccc(-c3cccc(C(=O)O)c3)o2)S1 [AV15A2] | – | – | 90 ± 17 | > 100 | – |
| Cc1ccc2nc(-c3ccc(NC(=O)/C=C/C(=O)O)cc3)sc2c1 [GLD28] | – | – | – | – | IC50 [1, 9]: 23 ± 4 µM; IC50 [2, 10]: 48 ± 19 µM |
| O=C(CSc1nnc(-c2ccccc2O)n1Cc1ccccc1)NNC(=O)c1ccccc1O [AS9A11] | – | – | 9 ± 2 | 15 ± 3 | – |
| CCOc1cc(/C=C2/C(=N)N3N=C(C(C)(F)F)SC3=NC2=O)ccc1OCc1ccc(F)cc1 [RT35] | 19 | 90 | – | – | – |
| Cn1c(=O)c(C(=O)Nc2ccccc2C(F)(F)F)c(O)c2ccccc21 [XR12] | 28 | 81 | – | – | – |
| COc1cc(C=C2SC(=S)N(CC(=O)Nc3cc(Cl)ccc3O)C2=O)cc(OC)c1OC [Compound X171] | 17 ± 2 | 32 ± 11 | – | – | – |
| NC(=S)N1CCN(c2c(F)c(N)c3c(=O)c(C(=O)O)cn(C4CC4)c3c2F)CC1 [ROM3A5] | > 100 | > 100 | – | – | – |
| O=C(CSc1nnc(-c2ccc(Cl)cc2)n1-c1ccccc1)N/N=C/c1ccccc1C(=O)O [GLD39] | – | – | > 100 | > 100 | – |
| COc1ccc(N(CC(=O)N/N=C/c2c(O)ccc3ccccc23)S(C)(=O)=O)cc1Cl [Example X279] | – | – | – | – | IC50 [1, 5]: 59 µM; IC50 [2, 7]: 95 µM |
| O=C(COc1ccccc1[N+](=O)[O-])Nc1ccc(O)c(-c2nc3ccccc3s2)c1 [Compound X257] | – | – | – | – | IC50 [1, 5]: 80 µM; IC50 [2, 7]: 99 µM |
| COc1cc(C(=O)Nc2ccc(O)c(-c3nc4ccccc4o3)c2)cc(OC)c1OC [XR18] | – | – | – | – | IC50 [1, 5]: < 100 µM; IC50 [2, 7]: < 100 µM |
| O=C(CCN1C(=O)C(=Cc2cccs2)SC1=S)Nc1cccc(O)c1 [Compound X177] | > 100 | > 100 | – | – | – |
| CC(C)(C)c1ccc(C2C(C(=O)c3ccc(F)cc3)=C(O)C(=O)N2c2nncs2)cc1 (centres unmarked) [Compound M28A2] | – | – | 43 ± 8 | 64 ± 28 | – |
| O=C1/C(=C/c2ccc(O)cc2O)SC(=S)N1c1ccccc1 [Compound X221] | > 100 | > 100 | – | – | – |
| Cc1ccc(C(=O)C2=C(O)C(=O)N(c3nccs3)C2c2ccc(F)cc2)cc1 (centres unmarked) [Compound M28A7] | – | – | 78 ± 10 | > 100 | – |
| O=C(CSc1nc(CSc2ccc(Cl)cc2)cc(=O)[nH]1)Nc1ccc(Cl)cc1Cl [Example X272] | – | – | – | – | IC50 [1, 5]: 24 µM; IC50 [2, 7]: 34 µM |
| COc1cc(C(=O)Nc2ccc(O)c(C(=O)O)c2)cc(OC)c1OC [Compound X108] | > 100 | > 100 | – | – | – |
| CC1=C(C#N)c2nc(N)c(C#N)c(C)c2/C1=C/c1ccc(-c2ccccc2C(=O)O)o1 [AV15A45] | – | – | 39 | 91 ± 16 | – |

| Structure (SMILES) | IC50 [1, 3] [µM] | IC50 [2, 4] [µM] | IC50 [1, 6] [µM] | IC50 [2, 8] [µM] | also measured |
| --- | --- | --- | --- | --- | --- |
| Nc1nonc1C(=O)N/N=C/c1ccc(-c2cccc(C(=O)O)c2)o1 [AV15A5] | – | – | 88 ± 21 | > 100 | – |
| CCOC(=O)c1c(-c2ccccc2)csc1NC(NC(=O)c1ccco1)C(=O)c1ccc(C)cc1 (centres unmarked) [Example X88] | – | – | – | – | IC50 [1, 5]: 79 µM; IC50 [2, 7]: > 100 µM |
| O=C(O)CSc1nnc(-c2ccco2)c(-c2ccco2)n1 [GLD2] | – | – | 5 ± 3 | 18 ± 4 | – |
| COc1cc(/C=C2/SC(=S)N(CC(=O)O)C2=O)ccc1OCc1ccccc1 [OT3] | 92 ± 7 | > 100 | – | – | – |
| CCOc1ccc(C=C2SC(=S)N(CCC(=O)Nc3cccc(C(=O)O)c3)C2=O)cc1 [Compound X95] | > 100 | 93 ± 12 | – | – | – |
| Cc1cc2nc3s/c(=C\c4ccc(-c5cccc(C(=O)O)c5)o4)c(=O)n3c2cc1C [AV15A32] | – | – | > 100 | > 100 | – |
| COc1ccc(-n2c(Cc3ccccc3)nnc2SCC(=O)NNC(=O)c2ccccc2O)cc1 [AS9A2] | – | – | 17 ± 1 | 18 ± 1 | – |
| O=C(N/N=C/c1cc(Br)ccc1O)/C(=C/C=C/c1ccccc1)NC(=O)c1ccccc1 [Compound X234] | – | – | – | – | IC50 [1, 5]: 23 µM; IC50 [2, 7]: 90 µM |
| O=C(Nc1ccc(O)c(-c2nc3ccccc3o2)c1)c1cccc2ccccc12 [XR21] | – | – | – | – | IC50 [1, 5]: 6 µM; IC50 [2, 7]: 14 µM |
| N#Cc1c(-c2ccc(F)cc2)cc(C2CC2)nc1SCCN1C(=O)c2ccccc2C1=O [OT33] | 95 ± 11 | > 100 | – | – | – |
| CCn1cc(C(=O)NN)c(=O)c2cc(F)c(N3CCCCCC3)cc21 [ROM3A2] | 98 | 94 | – | – | – |
| O=C(O)c1c[nH]c2c(F)c(F)c(F)c(NCc3ccccc3)c2c1=O [ROM3] | 12 | > 12 | – | – | – |
| CCOC(=O)c1sc(N2C(=O)C(O)=C(C(=O)c3ccccc3)C2c2ccc(F)cc2)nc1C (centres unmarked) [Compound M28A10] | – | – | 21 ± 4 | 44 ± 4 | – |
| O=C(O)c1cccc(-c2ccc(/C=N/NC(=O)c3cccnc3)o2)c1 [AV15A4] | – | – | 96 ± 6 | > 100 | – |
| CCOc1cc(/C=C2\C(=O)N(c3nnn[nH]3)N=C2C)ccc1OC [GLD12A3] | – | – | – | – | IC50 ([1]; Table 54, read-out: IN inhibition activity Strand transfer): 59 ± 13 µM; IC50 ([2]; Table 54, read-out: IN inhibition activity 3′-processing): 75 ± 28 µM |
| O=C(O)c1ccc(-c2ccc(/C=N/Nc3nc(Nc4ccccc4)nc(Nc4ccccc4)n3)o2)cc1O [AV15A28] | – | – | > 100 | > 100 | – |
| Cn1c(=O)c(C(=O)Nc2ccccc2S(N)(=O)=O)c(O)c2ccccc21 [XR8] | 39 | 50 | – | – | – |
| O=C(C1=C(O)C(=O)N(c2nc3ccccc3s2)C1c1ccccn1)c1ccc(Cl)cc1 (centres unmarked) [Compound M28A22] | – | – | 83 ± 12 | > 100 | – |
| O=C(/C=C/c1ccc(Cl)cc1)Nc1ccc(NC(=O)c2ccco2)cc1 [Example X159] | – | – | – | – | IC50 [1, 5]: 91 µM; IC50 [2, 7]: 90 µM |
| COc1ccc(C2C(C(=O)c3ccc(Br)cc3)=C(O)C(=O)N2CCc2ccccc2)cc1OC (centres unmarked) [AS143] | – | – | 42 ± 10 | 60 ± 3 | – |
| O=C(CN1C(=O)/C(=C2\SC(=S)N(CC(=O)Nc3ccc(C(=O)O)cc3)C2=O)SC1=S)Nc1ccc(C(=O)O)cc1 [Compound X102] | 75 | 59 ± 31 | – | – | – |
